From patent publication US20250243210A1, “CRBN E3 LIGASE LIGAND COMPOUND, PROTEIN DEGRADER DEVELOPED BASED THEREON AND THEIR APPLICATIONS” (GLUETACS THERAPEUTICS (SHANGHAI) CO., LTD., priority 2021, published 2025)

What was measured:
Daudi = assay: CCK-8 tumor cell proliferation, Daudi; assay type: cell-based; details: Homo sapiens, 96 h, read-out: IC50 for inhibiting the proliferation of tumor cells, Daudi
Description: (§1) Determination of half inhibitory concentration (IC50) of the compounds against tumor cells:
(§2) The tumor cells used herein were cultured in a cell culture medium listed in table 6 at 37° C. in an incubator with 5% CO2.
(§3) After the cells were treated with the compounds of the present disclosure for a period of time (the treatment times listed in Table 7), the cell viability detection reagent was added to the culture medium for cell viability assessment according to the instructions provided with the CCK-8 kit. […] The growth inhibition of the compounds of the present disclosure on cells was plotted by Prism Graphpad software, and the IC50 values of the compounds of the present disclosure were calculated therefrom.

TMD8 = assay: CCK-8 tumor cell proliferation, TMD8; assay type: cell-based; details: Homo sapiens, TMD8, 72 h, read-out: IC50 for inhibiting the proliferation of tumor cells, TMD8
Description: as §1, §2, §3

Kasumi-1 = assay: CCK-8 tumor cell proliferation, Kasumi-1; assay type: cell-based; details: Homo sapiens, Kasumi-1, 72 h, read-out: IC50 for inhibiting the proliferation of tumor cells, Kasumi-1
Description: as §1, §2, §3

SU-DHL-6 = assay: CCK-8 tumor cell proliferation, SU-DHL-6; assay type: cell-based; details: Homo sapiens, SU-DHL-6, 72 h, read-out: IC50 for inhibiting the proliferation of tumor cells, SU-DHL-6
Description: as §1, §2, §3

LNcap = assay: CCK-8 tumor cell proliferation, LNcap; assay type: cell-based, Human; details: 96 h, read-out: IC50 for inhibiting the proliferation of tumor cells, LNcap
Outline: (§4)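 Cells were seeded in 96-well plates and treated 24 h later with compounds at 10 concentrations, top 10 μM, 5-fold serial dilutions. Viability after the set treatment time was read with a CCK-8 kit, and IC50 was calculated from growth-inhibition curves.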

WSU-DLCL2 = assay: CCK-8 tumor cell proliferation, WSU-DLCL2; assay type: cell-based, Human; details: WSU-DLCL2, 96 h, read-out: IC50 for inhibiting the proliferation of tumor cells, WSU-DLCL2
Outline: (§5)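 Cells grown at 37° C with 5% CO2, treated with compound for line-specific times, then viability read with CCK-8. IC50 derived from plotted growth inhibition curves.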

CCRF-CEM = assay: CCK-8 tumor cell proliferation, CCRF-CEM; assay type: cell-based, Human; details: 96 h, read-out: IC50 for inhibiting the proliferation of tumor cells, CCRF-CEM
Description: as §1, §2, §3

MGC80-3 = assay: CCK-8 tumor cell proliferation, MGC80-3; assay type: cell-based, Human; details: MGC80-3, 96 h, read-out: IC50 for inhibiting the proliferation of tumor cells, MGC80-3
Outline: as §4

A549 = assay: CCK-8 tumor cell proliferation, A549; assay type: cell-based, Human; details: A549, 96 h, read-out: IC50 for inhibiting the proliferation of tumor cells, A549
Description: as §1
The tumor cells used herein were cultured in a cell culture medium listed in table 6 at 37° C. in an incubator with 5% CO2. Prior to experimentation, all cells used were correctly identified by STR profiling, and tested negative for mycoplasma through routine screenings.
IC50 values of the compounds of the present disclosure (including the compounds in Table 4 and compounds of examples 1-72) were measured using the Meilun Cell Counting Kit-S kit from Dalian Meilun Biotech Co., Ltd. Assay details are as follows: tumor cells were seeded in a 96-well plate at a density listed in Table 7. After 24 h, 100 μL of the inoculated cells were treated with 0.5 μL of the compounds of the present disclosure (including the compounds in Table 4 and compounds of examples 1-72) at 10 different successively decreasing concentrations (starting at the highest concentration of 10 μM; 5-fold serial dilutions). After the cells were treated with the compounds of the present disclosure for a period of time (the treatment times listed in Table 7), the cell viability detection reagent was added to the culture medium for cell viability assessment according to the instructions provided with the CCK-8 kit. […] The growth inhibition of the compounds of the present disclosure on cells was plotted by Prism Graphpad software, and the IC50 values of the compounds of the present disclosure were calculated therefrom.

MM.1R = assay: CCK-8 tumor cell proliferation, MM.1R; assay type: cell-based; details: 72 h, read-out: IC50 for inhibiting the proliferation of tumor cells, MM.1R
Description: as §1, §2, §3

Hep3B2.1-7 = assay: CCK-8 tumor cell proliferation, Hep3B2.1-7; assay type: cell-based, Human; details: Hep3B2.1-7, 96 h, read-out: IC50 for inhibiting the proliferation of tumor cells, Hep3B2.1-7
Outline: as §4

DU-145 = assay: CCK-8 tumor cell proliferation, DU-145; assay type: cell-based, Human; details: DU-145, 96 h, read-out: IC50 for inhibiting the proliferation of tumor cells, DU-145
Outline: as §5

Row | SMILES | IC50 (Daudi) [nM] | IC50 (TMD8) [nM] | IC50 (Kasumi-1) [nM] | IC50 (SU-DHL-6) [nM] | IC50 (LNcap) [nM] | IC50 (WSU-DLCL2) [nM] | IC50 (CCRF-CEM) [nM] | IC50 (MGC80-3) [nM] | IC50 (A549) [nM] | IC50 (MM.1R) [nM] | IC50 (Hep3B2.1-7) [nM] | IC50 (DU-145) [nM]
1 | Cc1nc(Nc2ncc(C(=O)Nc3c(C)cccc3Cl)s2)cc(N2CCC(CN3C4CCC3CN(c3cc5c(cc3F)C(=O)N(C3CCC(=O)NC3=O)C5=O)C4)CC2)n1 (stereo not drawn) [GT-03537, N-(2-chloro-6-methylphenyl)-2-((6-(4-((3-(2-(2,6-dioxopiperidin-3-yl)-6-fluoro-1,3-dioxoisoindolin-5-yl)-3,8-diazabicyclo[3.2.1]octan-8-yl)methyl)piperidin-1-yl)-2-methylpyrimidin-4-yl)amino)thiazole-5-carboxamide] | 100 to 500 | ≤ 50 | 50 to 100 | ≤ 50 | – | – | – | – | – | – | – | –
2 | Cc1nc(Nc2ncc(C(=O)Nc3c(C)cccc3Cl)s2)cc(N2CCC(CN3C4CC3CN(c3ccc5c(c3)C(=O)N(C3CCC(=O)NC3=O)C5=O)C4)CC2)n1 (stereo not drawn) [GT-03631, N-(2-chloro-6-methylphenyl)-2-((6-(4-((3-(2-(2,6-dioxopiperidin-3-yl)-1,3-dioxoisoindolin-5-yl)-3,6-diazabicyclo[3.1.1]heptan-6-yl)methyl)piperidin-1-yl)-2-methylpyrimidin-4-yl)amino)thiazole-5-carboxamide] | 100 to 500 | – | 100 to 500 | ≤ 50 | – | – | – | – | – | – | – | –
3 | N#Cc1ccc(OC2CCC(NC(=O)c3ccc(N4CCC(CN5CC6CC(C5)N6c5cc6c(cc5F)C(=O)N(C5CCC(=O)NC5=O)C6=O)CC4)nn3)CC2)cc1Cl (stereo not drawn) [GT-03486, N-((1r,4r)-4-(3-chloro-4-cyanophenoxy)cyclohexyl)-6-(4-((6-(2-(2,6-dioxopiperidin-3-yl)-6-fluoro-1,3-dioxoisoindolin-5-yl)-3,6-diazabicyclo[3.1.1]heptan-3-yl)methyl)piperidin-1-yl)pyridazine-3-carboxamide] | – | – | – | – | 100 to 500 | 100 to 500 | 100 to 500 | 50 to 100 | 100 to 500 | 100 to 500 | – | –
4 | Cc1nc(Nc2ncc(C(=O)Nc3c(C)cccc3Cl)s2)cc(N2CCC(CN3C4CC3CN(c3cc5c(cc3F)C(=O)N(C3CCC(=O)NC3=O)C5=O)C4)CC2)n1 (stereo not drawn) [GT-03538, N-(2-chloro-6-methylphenyl)-2-((6-(4-((3-(2-(2,6-dioxopiperidin-3-yl)-6-fluoro-1,3-dioxoisoindolin-5-yl)-3,6-diazabicyclo[3.1.1]heptan-6-yl)methyl)piperidin-1-yl)-2-methylpyrimidin-4-yl)amino)thiazole-5-carboxamide] | 100 to 500 | ≤ 50 | 100 to 500 | ≤ 50 | – | – | – | – | – | – | – | –
5 | Cc1nc(Nc2ncc(C(=O)Nc3c(C)cccc3Cl)s2)cc(N2CCN(CCO)CC2)n1 [Dasatinib, reference compound] | 100 to 500 | ≤ 50 | ≤ 50 | ≤ 50 | – | – | – | – | – | – | – | –
6 | Cc1nc(Nc2ncc(C(=O)Nc3c(C)cccc3Cl)s2)cc(N2CCC(CN3C4CCC3CN(c3ccc5c(c3)C(=O)N(C3CCC(=O)NC3=O)C5=O)C4)CC2)n1 (stereo not drawn) [GT-03632, N-(2-chloro-6-methylphenyl)-2-((6-(4-((3-(2-(2,6-dioxopiperidin-3-yl)-1,3-dioxoisoindolin-5-yl)-3,8-diazabicyclo[3.2.1]octan-8-yl)methyl)piperidin-1-yl)-2-methylpyrimidin-4-yl)amino)thiazole-5-carboxamide] | 50 to 100 | – | ≤ 50 | ≤ 50 | – | – | – | – | – | – | – | –
7 | N#Cc1ccc(OC2CCC(NC(=O)c3ccc(N4C5CCC4CN(CC4CCN(c6cc7c(cc6F)C(=O)N(C6CCC(=O)NC6=O)C7=O)CC4)C5)nn3)CC2)cc1Cl (stereo not drawn) [GT-03449, N-((1r,4r)-4-(3-chloro-4-cyanophenoxy)cyclohexyl)-6-(3-((1-(2-(2,6-dioxopiperidin-3-yl)-6-fluoro-1,3-dioxoisoindolin-5-yl)piperidin-4-yl)methyl)-3,8-diazabicyclo[3.2.1]octan-8-yl)pyridazine-3-carboxamide] | – | – | – | – | 50 to 100 | – | 100 to 500 | 50 to 100 | – | 100 to 500 | 50 to 100 | 500 to 1000
